Results on seven compounds are retold here after US20240285571A1, “METHODS OF TREATING BONE INFECTIONS” (MICROBION CORPORATION, priority 2020, published 2024).

Structures are written as SMILES. Where two headings read alike, the source gives them in different places.

Assay [1] concerns relevant ATCC QC organisms. The conditions noted are these: CLSI established QC range, cited from earlier work.
In assay [2] the test system is vancomycin-intermediate Staphylococcus aureus. In words: Broth microdilution MIC (Example 6). The format is cell-based. An outline of the steps:
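CLSI broth microdilution in cation-adjusted Mueller Hinton broth, test agents 0.06-64 μg/mL from DMSO stocks, inoculum approx. 5×10^5 CFU/mL. Incubation 35° C for 16–20 hr; MIC taken as lowest concentration inhibiting visible growth.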

Another assay has as its system E. faecium. The assay is described as follows: Broth microdilution MIC (Example 5). As to conditions: VRE vanA. The format is cell-based. The essentials:
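Endpoints are read from the plate bottom per CLSI criteria after 16-24 hr at 35° C. The isolates are tested by broth microdilution against two-fold drug dilution series, with inocula standardized to a 0.5 McFarland suspension.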
For orientation: Dilution methods test growth across graded concentrations, often in twofold steps.

Regarding `NCC[C@H](O)C(=O)N[C@@H]1C[C@H](N)[C@@H](O[C@H]2O[C@H](CN)[C@@H](O)[C@H](O)[C@H]2O)[C@H](O)[C@H]1O[C@H]1O[C@H](CO)[C@@H](O)[C@H](N)[C@H]1O` [Amikacin], the “MIC QC range (in parentheses)” value in assay [1] (P. aeruginosa ATCC 27853) was “(1-4) μg/mL”.
Take `CCC[C@@H]1C[C@@H](C(=O)N[C@@H]([C@H]2O[C@H](SC)[C@H](O)[C@@H](O)[C@H]2O)[C@H](C)Cl)N(C)C1` [CLI]: the MIC in assay [2] (S. aureus isolate NRS 1 (hVISA)) was above 8 µg/mL; in assay [2] (S. aureus isolate NRS 2), above 8 µg/mL; in assay [2] (S. aureus isolate NRS 3), above 8 µg/mL; in assay [2] (S. aureus isolate NRS 4), above 8 µg/mL; in assay [2] (S. aureus isolate NRS 13) it was 0.06 µg/mL; in assay [2] (S. aureus isolate NRS 18) it was above 8 µg/mL. The MIC in assay [2] (S. aureus isolate NRS 22), in assay [2] (S. aureus isolate NRS 24 (hVISA)) and in assay [2] (S. aureus isolate NRS 27) was above 8 µg/mL throughout. In addition, the “MIC QC range (in parentheses)” value in assay [1] (S. aureus ATCC 29213) is reported as “(0.06-0.25) μg/mL”.
Regarding `CC(C)(O/N=C(\C(=O)N[C@@H]1C(=O)N2C(C(=O)[O-])=C(C[n+]3ccccc3)CS[C@H]12)c1csc(N)n1)C(=O)O` [Ceftazidime], the MIC against E. faecium (E. faecium MMX 485) was above 32 µg/mL. Also, the “MIC QC range (in parentheses)” value was “(0.06-0.5) μg/mL” in assay [1] (E. coli ATCC 25922) and “(1-4) μg/mL” in assay [1] (P. aeruginosa ATCC 27853).
In the case of `C[C@H]1COc2c(N3CCN(C)CC3)c(F)cc3c(=O)c(C(=O)O)cn1c23` [Levofloxacin], the MIC was above 64 µg/mL with E. faecium (E. faecium MMX 485); 4 µg/mL in assay [2] (Staphylococcus aureus, NRS1, S. aureus isolate NRS 1 (hVISA), read-out: MIC); 4 µg/mL in assay [2] (Staphylococcus aureus, NRS2, S. aureus isolate NRS 2, read-out: MIC); above 8 µg/mL in assay [2] (Staphylococcus aureus, NRS3, S. aureus isolate NRS 3, read-out: MIC); 4 µg/mL in assay [2] (Staphylococcus aureus, NRS4, S. aureus isolate NRS 4, read-out: MIC); 0.12 µg/mL in assay [2] (Staphylococcus aureus, NRS13, S. aureus isolate NRS 13, read-out: MIC). Further, the MIC in assay [2] (Staphylococcus aureus, NRS18, S. aureus isolate NRS 18, read-out: MIC) is 4 µg/mL; in assay [2] (Staphylococcus aureus, NRS22, S. aureus isolate NRS 22, read-out: MIC) it was 8 µg/mL; in assay [2] (Staphylococcus aureus, NRS24, S. aureus isolate NRS 24 (hVISA), read-out: MIC) it was above 8 µg/mL; in assay [2] (Staphylococcus aureus, NRS27, S. aureus isolate NRS 27, read-out: MIC), 8 µg/mL.
Take `OCC(S)CS.[Bi]` (stereo not shown) [MB-2B, bismuth-2,3-dimercaptopropanol]: the MIC stood at 2 µg/mL in the assay with E. faecium (Enterococcus faecium, VRE, E. faecium MMX 485); 4 µg/mL against E. faecium (Enterococcus faecium, VRE, E. faecium MMX 752); 1 µg/mL in assay [2] (Staphylococcus aureus, NRS1); 0.5 µg/mL in assay [2] (Staphylococcus aureus, NRS2); 2 µg/mL in assay [2] (Staphylococcus aureus, NRS3); 1 µg/mL in assay [2] (Staphylococcus aureus, NRS4). The MIC is 1 µg/mL in assay [2] (Staphylococcus aureus, NRS13); 1 µg/mL in assay [2] (Staphylococcus aureus, NRS18); 2 µg/mL in assay [2] (Staphylococcus aureus, NRS22); 1 µg/mL in assay [2] (Staphylococcus aureus, NRS24); 1 µg/mL in assay [2] (Staphylococcus aureus, NRS27).
For `CC(S)C(C)S.[Bi]` (stereo not shown) [MB-6, bismuth-2,3-butanedithiol], the MIC is 0.12 µg/mL in assay [2] (Staphylococcus aureus, NRS1); at most 0.06 µg/mL in assay [2] (Staphylococcus aureus, NRS2); 1 µg/mL in assay [2] (Staphylococcus aureus, NRS24).
`C[C@@H](O)[C@H]1C(=O)N2C(C(=O)O)=C(S[C@@H]3CN[C@H](C(=O)N(C)C)C3)[C@H](C)[C@H]12` [Meropenem] returned an MIC against E. faecium (E. faecium MMX 485) above 64 µg/mL. In addition, the “MIC QC range (in parentheses)” value in assay [1] (E. coli ATCC 25922) is “(0.008-0.06) μg/mL”; in assay [1] (E. coli ATCC 35218), “(0.008-0.06) μg/mL”; in assay [1] (K. pneumoniae ATCC BAA-1705), “(8-64) μg/mL”; in assay [1] (P. aeruginosa ATCC 27853), “(0.12-1) μg/mL”.

By MIC is commonly meant the lowest concentration that inhibits growth of the organism.
